# Data as given in the supplement of paper PMC10307832.
# What was measured:
# Experiment in all cases: relative viability (nuclei count vs DMSO), 5 days (fraction); higher = more cells survive
# [1] = compound: COc1cc2nccc(Oc3ccc(NC(=O)Nc4cc(C)on4)c(Cl)c3)c2cc1OC [Tivozanib]
# In short: (§1)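 MetaXpress counted nuclei in 4× images of lung cancer cell lines that had been fixed, permeabilised and Hoechst-stained in one step. Before that, cells in 1536-well plates were kept overnight at 37 °C, pinned with five √10-spaced library-drug doses on vehicle-anchored plates, and cultured 5 days without medium change. Viability takes treated-well nuclei over vehicle-well nuclei and uses the median across plates. Plates were accepted only at control CV below 25% and at least one doubling.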
# [2] = compound: Cc1sc2c(c1C)C(c1ccc(Cl)cc1)=N[C@@H](CC(=O)OC(C)(C)C)c1nnc(C)n1-2 [JQ1]
# In short: as §1
# [3] = compound: O=c1[nH]c2ccccc2n1C1CCN(CCCC(c2ccc(F)cc2)c2ccc(F)cc2)CC1 [Pimozide]
# In short: as §1
# [4] = compound: O=C(O)CCCCC(CCSCc1ccccc1)SCc1ccccc1 [CPI-613]
# In short: as §1
# [5] = compound: Cc1cnc(-c2cnc(NCCNc3ccc(C#N)cn3)nc2-c2ccc(Cl)cc2Cl)[nH]1
# In short: as §1
# [6] = compound: CC(=O)O[C@@]12CO[C@@H]1C[C@H](O)[C@@]1(C)C(=O)[C@H](O)C3=C(C)[C@@H](OC(=O)[C@H](O)[C@@H](NC(=O)OC(C)(C)C)c4ccccc4)C[C@@](O)([C@@H](OC(=O)c4ccccc4)[C@H]21)C3(C)C [Docetaxel]
# In short: as §1
# [7] = compound: Nc1ccn([C@@H]2O[C@H](CO)[C@@H](O)[C@@H]2O)c(=O)n1 [Cytarabine]
# In short: as §1
Cell Line,relative viability ([1]; 0.005 µM),relative viability ([1]; 0.01581 µM),relative viability ([1]; 0.05 µM),relative viability ([1]; 0.1581 µM),relative viability ([1]; 0.5 µM),relative viability ([2]; 0.04 µM),relative viability ([2]; 0.1265 µM),relative viability ([2]; 0.4 µM),relative viability ([2]; 1.265 µM),relative viability ([2]; 4 µM),relative viability ([3]; 0.08 µM),relative viability ([3]; 0.253 µM),relative viability ([3]; 0.8 µM),relative viability ([3]; 2.53 µM),relative viability ([3]; 8 µM),relative viability ([4]; 5 µM),relative viability ([4]; 15.81 µM),relative viability ([4]; 50 µM),relative viability ([4]; 158.11 µM),relative viability ([4]; 500 µM),relative viability ([5]; 0.08 µM),relative viability ([5]; 0.253 µM),relative viability ([5]; 0.8 µM),relative viability ([5]; 2.53 µM),relative viability ([6]; 0.0002 µM),relative viability ([6]; 0.000632 µM),relative viability ([6]; 0.002 µM),relative viability ([6]; 0.006325 µM),relative viability ([6]; 0.02 µM),relative viability ([7]; 0.005 µM),relative viability ([7]; 0.01581 µM),relative viability ([7]; 0.05 µM),relative viability ([7]; 0.1581 µM),relative viability ([7]; 0.5 µM)
ChaGo-K-1,0.979,0.956,0.97,0.909,0.921,0.93,0.845,0.956,0.901,0.743,1.08,0.95,0.975,0.96,0.961,0.918,0.981,0.975,0.705,0.411,0.987,0.854,1.02,0.939,1,0.691,0.636,0.349,0.196,0.687,0.681,0.509,0.383,0.283
EBC-1,0.951,0.96,0.979,0.929,0.918,0.922,0.596,0.372,0.138,0.141,0.996,0.94,0.899,0.901,0.942,0.962,0.823,0.828,0.661,0.556,0.982,0.914,0.975,0.987,0.89,0.693,0.241,0.25,0.152,0.817,0.816,0.623,0.478,0.336
EKVX,0.908,0.989,1.09,0.939,0.971,0.997,0.781,0.939,0.827,0.769,–,0.906,0.923,0.978,0.984,0.935,0.959,0.932,0.628,0.935,1,0.824,0.975,0.835,0.97,0.874,0.462,0.262,0.176,1.02,0.913,0.694,0.364,0.362
EMC-BAC-2,0.935,1.06,1,0.752,0.792,0.922,0.667,0.842,0.519,0.48,0.969,0.933,0.884,0.933,0.955,0.973,0.875,0.982,0.782,0.189,1.02,0.96,0.923,0.897,0.905,0.736,0.483,0.304,0.268,1.04,0.866,0.492,0.349,0.257
EPLC-272H,0.908,0.885,0.947,0.731,0.635,0.801,0.797,0.789,0.433,0.289,0.852,0.896,0.842,0.7,0.61,0.9,0.834,0.839,0.783,0.449,1.02,0.836,0.937,0.962,0.878,0.533,0.244,0.104,0.071,0.768,0.572,0.487,0.331,0.173
H3255,0.922,0.985,0.882,0.828,0.926,0.874,0.665,0.912,0.456,0.336,–,0.913,0.907,0.907,0.948,0.94,0.803,0.984,0.92,0.888,1.02,0.887,0.994,0.999,0.899,0.978,0.657,0.336,0.3,0.96,0.922,0.763,0.695,0.591
HARA,0.928,0.963,0.995,0.937,0.976,0.867,0.569,0.533,0.322,0.288,0.812,0.995,0.876,0.952,0.908,0.909,0.862,0.984,0.6,0.0433,1.01,0.737,0.859,0.833,0.796,0.46,0.197,0.188,0.0932,0.788,0.716,0.397,0.24,0.221
HCC-15,0.962,0.922,0.949,1.07,0.89,0.97,–,0.859,0.656,0.6,1.05,0.965,0.725,0.961,0.9,0.96,0.914,0.908,0.465,0.264,1.06,0.686,0.953,0.892,0.8,0.536,0.229,0.257,0.149,1.07,0.988,0.966,0.828,0.547
